Source: BindingDB's records for doi:10.1016/j.bmcl.2004.04.033 (Eli Lilly, 2004)
Structures can show the parent of a compound that is named as a salt.

biological target: Cyclin-dependent kinase 4/G1/S-specific cyclin-D1 (Homo sapiens, UniProt P11802); experiment: CDK Kinase Inhibition Assay; conditions: pH 7; 22 °C
Description: In vitro CDK assay using purified enzyme, was incubated at room temperature with substrate, and test compounds in the presence of ATP/[gamma-33P]ATP. 33P incorporation was measured with a Top Count (Packard). IC50 is the inhibitor concentration which inhibits 50% of kinase activity that catalyzes the transfer of the terminal phosphate from 33P labeled ATP to the substrate.

Cyclin-dependent kinase 4/G1/S-specific cyclin-D1, sequence (P11802 whole entry): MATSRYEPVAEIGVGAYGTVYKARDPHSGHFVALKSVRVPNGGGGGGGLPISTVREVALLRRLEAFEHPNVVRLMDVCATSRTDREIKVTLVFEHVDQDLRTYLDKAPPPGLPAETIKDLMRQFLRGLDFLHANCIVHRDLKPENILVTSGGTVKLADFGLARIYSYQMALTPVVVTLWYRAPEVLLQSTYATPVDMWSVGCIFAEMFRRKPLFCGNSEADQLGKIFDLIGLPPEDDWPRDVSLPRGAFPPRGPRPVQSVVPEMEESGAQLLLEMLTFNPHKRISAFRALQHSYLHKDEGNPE
Cyclin-dependent kinase 4/G1/S-specific cyclin-D1, sequence (P24385 whole entry, further chain): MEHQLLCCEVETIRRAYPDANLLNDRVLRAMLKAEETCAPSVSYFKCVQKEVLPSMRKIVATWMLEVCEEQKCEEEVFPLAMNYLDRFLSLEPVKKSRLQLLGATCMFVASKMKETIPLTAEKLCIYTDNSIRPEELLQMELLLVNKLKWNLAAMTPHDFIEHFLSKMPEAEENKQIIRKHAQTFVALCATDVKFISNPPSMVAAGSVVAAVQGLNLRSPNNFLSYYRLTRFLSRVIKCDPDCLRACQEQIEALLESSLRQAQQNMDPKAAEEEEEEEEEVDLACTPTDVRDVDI

First: COC(=O)CC(NCC1Cc2cccc3c4c5c(c6c7ccc(F)cc7[nH]c6c4n(c23)C1)C(=O)NC5=O)C(=O)OC (stereo not given) [1,4-dimethyl 2-[({7-fluoro-13,15-dioxo-1,4,14-triazaheptacyclo[16.7.1.0^{2,17}.0^{3,11}.0^{5,10}.0^{12,16}.0^{22,26}]hexacosa-2(17),3(11),5(10),6,8,12(16),18(26),19,21-nonaen-24-yl}methyl)amino]butanedioate]
Second: CNCC1Cc2cccc3c4c5c(c6c7ccc(F)cc7[nH]c6c4n(c23)C1)C(=O)NC5=O (stereo not given) [7-fluoro-24-[(methylamino)methyl]-1,4,14-triazaheptacyclo[16.7.1.0^{2,17}.0^{3,11}.0^{5,10}.0^{12,16}.0^{22,26}]hexacosa-2(17),3(11),5(10),6,8,12(16),18(26),19,21-nonaene-13,15-dione hydrochloride]
The IC50 of the first is 84-fold higher: 671 nM for the first, 8 nM for the second.

Going from `O=C1NC(=O)c2c1c1c3ccc(F)cc3[nH]c1c1c2c2cccc3c2n1CC(CCl)C3` (stereo not given) [24-(chloromethyl)-7-fluoro-1,4,14-triazaheptacyclo[16.7.1.0^{2,17}.0^{3,11}.0^{5,10}.0^{12,16}.0^{22,26}]hexacosa-2(17),3(11),5(10),6,8,12(16),18(26),19,21-nonaene-13,15-dione] to `NC(=O)[C@@H]1CCCN1CC1Cc2cccc3c4c5c(c6c7ccc(F)cc7[nH]c6c4n(c23)C1)C(=O)NC5=O` (stereo partly drawn) [(2S)-1-({7-fluoro-13,15-dioxo-1,4,14-triazaheptacyclo[16.7.1.0^{2,17}.0^{3,11}.0^{5,10}.0^{12,16}.0^{22,26}]hexacosa-2(17),3(11),5(10),6,8,12(16),18(26),19,21-nonaen-24-yl}methyl)pyrrolidine-2-carboxamide], the IC50 rises from 64 nM to greater than 2000 nM. The first is the more potent here.

`CN(C)CC1Cc2cccc3c4c5c(c6c7ccccc7[nH]c6c4n(c23)C1)C(=O)NC5=O` (stereo not given) [24-[(dimethylamino)methyl]-1,4,14-triazaheptacyclo[16.7.1.0^{2,17}.0^{3,11}.0^{5,10}.0^{12,16}.0^{22,26}]hexacosa-2(17),3(11),5(10),6,8,12(16),18(26),19,21-nonaene-13,15-dione] gave an IC50 of 898 nM.

biological target: cAMP-dependent protein kinase catalytic subunit alpha (Bos taurus, UniProt P00517); experiment: CDK Kinase Inhibition Assay; conditions: 25 °C

`O=C1NC(=O)c2c1c1c3ccc(Br)cc3[nH]c1c1c2c2cccc3c2n1CC(CO)C3` (stereo not given) [7-bromo-24-(hydroxymethyl)-1,4,14-triazaheptacyclo[16.7.1.0^{2,17}.0^{3,11}.0^{5,10}.0^{12,16}.0^{22,26}]hexacosa-2(17),3(11),5(10),6,8,12(16),18(26),19,21-nonaene-13,15-dione] and `O=C1NC(=O)c2c1c1c3ccc(F)cc3[nH]c1c1c2c2cccc3c2n1CC(CO)C3` (stereo not given) [7-fluoro-24-(hydroxymethyl)-1,4,14-triazaheptacyclo[16.7.1.0^{2,17}.0^{3,11}.0^{5,10}.0^{12,16}.0^{22,26}]hexacosa-2(17),3(11),5(10),6,8,12(16),18(26),19,21-nonaene-13,15-dione] cannot be ordered by IC50: greater than 2000 nM for the first, greater than 2000 nM for the second.

First: CNCC1Cc2cccc3c4c5c(c6c7ccc(F)cc7[nH]c6c4n(c23)C1)C(=O)NC5=O (stereo not given) [7-fluoro-24-[(methylamino)methyl]-1,4,14-triazaheptacyclo[16.7.1.0^{2,17}.0^{3,11}.0^{5,10}.0^{12,16}.0^{22,26}]hexacosa-2(17),3(11),5(10),6,8,12(16),18(26),19,21-nonaene-13,15-dione hydrochloride]
Second: COc1ccc2c(c1)[nH]c1c2c2c(c3c4cccc5c4n(c13)CC(CO)C5)C(=O)NC2=O (stereo not given) [24-(hydroxymethyl)-7-methoxy-1,4,14-triazaheptacyclo[16.7.1.0^{2,17}.0^{3,11}.0^{5,10}.0^{12,16}.0^{22,26}]hexacosa-2(17),3(11),5(10),6,8,12(16),18(26),19,21-nonaene-13,15-dione]
The IC50 of the first is lower: 383 nM for the first, greater than 2000 nM for the second.

`O=C1NC(=O)c2c1c1c3ccc(F)cc3[nH]c1c1c2c2cccc3c2n1C(CO)CC3` (stereo not given) [7-fluoro-25-(hydroxymethyl)-1,4,14-triazaheptacyclo[16.7.1.0^{2,17}.0^{3,11}.0^{5,10}.0^{12,16}.0^{22,26}]hexacosa-2(17),3(11),5(10),6,8,12(16),18(26),19,21-nonaene-13,15-dione] and `O=C1NC(=O)c2c1c1c3ccccc3ccc1c1c2c2cccc3c2n1C(CO)CC3` (stereo not given) [26-(hydroxymethyl)-1,15-diazaheptacyclo[17.7.1.0^{2,18}.0^{3,12}.0^{6,11}.0^{13,17}.0^{23,27}]heptacosa-2(18),3(12),4,6(11),7,9,13(17),19(27),20,22-decaene-14,16-dione] cannot be ordered by IC50: greater than 2000 nM for the first, greater than 2000 nM for the second.

`O=C1NC(=O)c2c1c1c3ccccc3[nH]c1c1c2c2cccc3c2n1CCC3CO` (stereo not given) [23-(hydroxymethyl)-1,4,14-triazaheptacyclo[16.7.1.0^{2,17}.0^{3,11}.0^{5,10}.0^{12,16}.0^{22,26}]hexacosa-2(17),3(11),5(10),6,8,12(16),18(26),19,21-nonaene-13,15-dione] and `O=C1NC(=O)c2c1c1c3ccccc3[nH]c1c1c2c2cccc3c2n1CC(CO)C3` (stereo not given) [24-(hydroxymethyl)-1,4,14-triazaheptacyclo[16.7.1.0^{2,17}.0^{3,11}.0^{5,10}.0^{12,16}.0^{22,26}]hexacosa-2(17),3(11),5(10),6,8,12(16),18(26),19,21-nonaene-13,15-dione] cannot be ordered by IC50: greater than 2000 nM for the first, greater than 2000 nM for the second.

`O=C1NC(=O)c2c1c1c3ccc(C(F)(F)F)cc3[nH]c1c1c2c2cccc3c2n1CC(CO)C3` (stereo not given) [24-(hydroxymethyl)-7-(trifluoromethyl)-1,4,14-triazaheptacyclo[16.7.1.0^{2,17}.0^{3,11}.0^{5,10}.0^{12,16}.0^{22,26}]hexacosa-2(17),3(11),5(10),6,8,12(16),18(26),19,21-nonaene-13,15-dione] and `O=C1NC(=O)c2c1c1c3ccccc3ccc1c1c2c2cccc3c2n1CC(CO)C3` (stereo not given) [25-(hydroxymethyl)-1,15-diazaheptacyclo[17.7.1.0^{2,18}.0^{3,12}.0^{6,11}.0^{13,17}.0^{23,27}]heptacosa-2(18),3(12),4,6(11),7,9,13(17),19(27),20,22-decaene-14,16-dione] cannot be ordered by IC50: greater than 2000 nM for the first, greater than 2000 nM for the second.
